Test results from ChEMBL document CHEMBL5291721, “A preclinical secondary pharmacology resource illuminates target-adverse drug reaction associations of marketed drugs” (Nat Commun, 2023).

Tests used:
[1] = biological target: Adenosine receptor A2a (Homo sapiens, UniProt P29274)
[2] = biological target: T1, Alpha-2A adrenergic receptor (Homo sapiens, UniProt P08913); type: functional, cell-based
T1 sequence (P08913 whole entry): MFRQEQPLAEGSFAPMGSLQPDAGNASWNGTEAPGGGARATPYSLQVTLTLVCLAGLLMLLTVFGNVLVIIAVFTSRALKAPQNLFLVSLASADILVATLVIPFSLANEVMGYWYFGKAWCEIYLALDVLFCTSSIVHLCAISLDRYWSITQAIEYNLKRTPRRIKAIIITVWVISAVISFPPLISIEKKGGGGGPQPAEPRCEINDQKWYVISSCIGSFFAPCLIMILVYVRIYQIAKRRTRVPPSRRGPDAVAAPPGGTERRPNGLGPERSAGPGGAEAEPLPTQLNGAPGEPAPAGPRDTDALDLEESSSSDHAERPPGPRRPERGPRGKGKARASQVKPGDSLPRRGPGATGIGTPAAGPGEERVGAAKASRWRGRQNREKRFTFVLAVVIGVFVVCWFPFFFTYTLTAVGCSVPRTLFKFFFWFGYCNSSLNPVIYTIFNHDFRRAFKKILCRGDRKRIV

[3] = biological target: T2, Alpha-2C adrenergic receptor (Homo sapiens, UniProt P18825); type: functional
T2 sequence (P18825 whole entry): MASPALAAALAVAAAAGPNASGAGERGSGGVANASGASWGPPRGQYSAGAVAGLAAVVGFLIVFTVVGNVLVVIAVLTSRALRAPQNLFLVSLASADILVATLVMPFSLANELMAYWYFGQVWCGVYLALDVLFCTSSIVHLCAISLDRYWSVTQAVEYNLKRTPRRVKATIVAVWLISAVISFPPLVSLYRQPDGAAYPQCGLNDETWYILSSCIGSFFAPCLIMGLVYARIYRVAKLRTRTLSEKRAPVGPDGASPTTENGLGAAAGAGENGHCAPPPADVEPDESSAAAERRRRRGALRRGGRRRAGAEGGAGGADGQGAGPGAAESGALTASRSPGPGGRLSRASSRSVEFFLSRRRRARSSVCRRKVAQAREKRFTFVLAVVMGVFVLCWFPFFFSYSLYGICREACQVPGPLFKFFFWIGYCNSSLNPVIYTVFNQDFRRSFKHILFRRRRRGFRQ

[4] = biological target: Beta-1 adrenergic receptor (Homo sapiens, UniProt P08588); type: functional
[5] = biological target: T3, Type-1 angiotensin II receptor (Homo sapiens, UniProt P30556)
T3 sequence (P30556 whole entry): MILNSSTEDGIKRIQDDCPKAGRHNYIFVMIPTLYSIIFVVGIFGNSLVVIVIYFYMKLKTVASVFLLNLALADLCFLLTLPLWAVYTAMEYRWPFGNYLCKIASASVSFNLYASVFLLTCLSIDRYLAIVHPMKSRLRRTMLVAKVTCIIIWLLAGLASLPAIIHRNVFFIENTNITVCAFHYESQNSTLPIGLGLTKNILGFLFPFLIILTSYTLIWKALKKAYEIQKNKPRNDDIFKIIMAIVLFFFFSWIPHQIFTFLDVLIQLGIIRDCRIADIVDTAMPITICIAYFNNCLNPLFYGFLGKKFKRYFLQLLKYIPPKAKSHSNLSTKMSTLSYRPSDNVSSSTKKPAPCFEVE

[6] = biological target: Vasopressin V2 receptor (Homo sapiens, UniProt P30518)
[7] = biological target: T4, Muscarinic acetylcholine receptor M2 (Homo sapiens, UniProt P08172); type: functional, cell-based
T4 sequence (P08172 whole entry): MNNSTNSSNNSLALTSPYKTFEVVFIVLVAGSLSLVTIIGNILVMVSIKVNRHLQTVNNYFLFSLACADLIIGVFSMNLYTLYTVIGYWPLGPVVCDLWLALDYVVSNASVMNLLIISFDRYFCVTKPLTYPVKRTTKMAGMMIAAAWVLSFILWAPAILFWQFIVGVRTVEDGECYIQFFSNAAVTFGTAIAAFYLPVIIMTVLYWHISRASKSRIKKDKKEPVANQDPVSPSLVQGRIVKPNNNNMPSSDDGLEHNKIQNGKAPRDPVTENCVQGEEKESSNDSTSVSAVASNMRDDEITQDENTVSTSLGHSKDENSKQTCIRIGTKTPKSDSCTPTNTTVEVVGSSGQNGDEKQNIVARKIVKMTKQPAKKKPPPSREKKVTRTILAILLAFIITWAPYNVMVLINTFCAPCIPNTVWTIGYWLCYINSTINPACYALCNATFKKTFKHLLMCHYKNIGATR

[8] = biological target: Histamine H2 receptor (Homo sapiens, UniProt P25021); type: functional, cell-based
[9] = biological target: T5, 5-hydroxytryptamine receptor 2B (Homo sapiens, UniProt P41595); type: functional, cell-based
[10] = biological target: T5, 5-hydroxytryptamine receptor 2B; type: functional, cell-based; remark: listed apart in the source
[11] = biological target: T6, Neuropeptide Y receptor type 1 (Homo sapiens, UniProt P25929)
T6 sequence (P25929 whole entry): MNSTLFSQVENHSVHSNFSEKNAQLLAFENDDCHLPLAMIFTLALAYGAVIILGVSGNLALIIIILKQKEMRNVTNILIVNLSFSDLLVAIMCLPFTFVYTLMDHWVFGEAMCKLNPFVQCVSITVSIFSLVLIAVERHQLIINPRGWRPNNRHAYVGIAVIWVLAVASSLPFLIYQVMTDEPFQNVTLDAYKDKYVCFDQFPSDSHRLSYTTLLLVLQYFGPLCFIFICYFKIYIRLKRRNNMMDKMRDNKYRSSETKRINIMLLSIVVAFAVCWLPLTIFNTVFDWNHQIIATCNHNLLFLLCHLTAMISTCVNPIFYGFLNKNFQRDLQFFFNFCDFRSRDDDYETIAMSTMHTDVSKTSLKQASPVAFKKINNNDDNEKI

[12] = biological target: Sodium-dependent noradrenaline transporter (Homo sapiens, UniProt P23975)
[13] = biological target: cGMP-inhibited 3',5'-cyclic phosphodiesterase 3A (Homo sapiens, UniProt Q14432); type: functional
[14] = biological target: D(3) dopamine receptor (Homo sapiens, UniProt P35462)
[15] = biological target: T4, Muscarinic acetylcholine receptor M2; type: functional, cell-based; remark: listed apart in the source
Note: assay procedure not described here.

Beta-1 adrenergic receptor, sequence (P08588 whole entry): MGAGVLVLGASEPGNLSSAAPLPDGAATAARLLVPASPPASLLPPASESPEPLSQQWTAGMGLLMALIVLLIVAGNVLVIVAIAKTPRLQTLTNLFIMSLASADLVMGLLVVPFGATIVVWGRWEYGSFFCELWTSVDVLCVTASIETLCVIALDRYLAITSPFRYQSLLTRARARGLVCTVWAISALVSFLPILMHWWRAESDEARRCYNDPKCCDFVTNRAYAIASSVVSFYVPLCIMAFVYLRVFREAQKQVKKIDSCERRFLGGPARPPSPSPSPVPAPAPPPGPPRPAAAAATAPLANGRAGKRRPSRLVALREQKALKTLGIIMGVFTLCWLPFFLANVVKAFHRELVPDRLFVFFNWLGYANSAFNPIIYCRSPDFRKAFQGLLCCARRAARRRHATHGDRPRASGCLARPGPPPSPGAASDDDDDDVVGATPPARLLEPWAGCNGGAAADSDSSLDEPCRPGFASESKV
Histamine H2 receptor, sequence (P25021 whole entry): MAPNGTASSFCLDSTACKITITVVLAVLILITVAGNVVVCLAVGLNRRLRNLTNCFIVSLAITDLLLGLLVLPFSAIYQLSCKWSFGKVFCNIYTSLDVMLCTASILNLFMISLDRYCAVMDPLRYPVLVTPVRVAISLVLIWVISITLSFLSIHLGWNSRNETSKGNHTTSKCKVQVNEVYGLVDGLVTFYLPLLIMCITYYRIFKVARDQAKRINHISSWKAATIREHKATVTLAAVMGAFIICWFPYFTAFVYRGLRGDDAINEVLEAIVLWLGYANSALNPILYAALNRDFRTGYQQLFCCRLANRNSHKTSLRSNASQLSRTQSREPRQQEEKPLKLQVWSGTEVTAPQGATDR
T5 sequence (P41595 whole entry): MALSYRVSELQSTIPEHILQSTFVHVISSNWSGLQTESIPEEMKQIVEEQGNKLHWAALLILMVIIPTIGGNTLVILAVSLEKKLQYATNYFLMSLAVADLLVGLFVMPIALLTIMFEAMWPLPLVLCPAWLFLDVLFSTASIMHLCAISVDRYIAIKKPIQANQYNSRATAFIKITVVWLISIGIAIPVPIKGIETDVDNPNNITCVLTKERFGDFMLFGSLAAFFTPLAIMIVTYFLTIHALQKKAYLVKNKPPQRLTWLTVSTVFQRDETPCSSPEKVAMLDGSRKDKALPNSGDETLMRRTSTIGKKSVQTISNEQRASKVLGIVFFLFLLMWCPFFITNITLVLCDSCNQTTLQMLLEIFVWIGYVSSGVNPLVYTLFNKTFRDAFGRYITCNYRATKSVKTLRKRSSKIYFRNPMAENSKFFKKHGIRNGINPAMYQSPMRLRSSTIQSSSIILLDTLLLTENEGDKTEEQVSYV
cGMP-inhibited 3',5'-cyclic phosphodiesterase 3A, sequence (Q14432 whole entry): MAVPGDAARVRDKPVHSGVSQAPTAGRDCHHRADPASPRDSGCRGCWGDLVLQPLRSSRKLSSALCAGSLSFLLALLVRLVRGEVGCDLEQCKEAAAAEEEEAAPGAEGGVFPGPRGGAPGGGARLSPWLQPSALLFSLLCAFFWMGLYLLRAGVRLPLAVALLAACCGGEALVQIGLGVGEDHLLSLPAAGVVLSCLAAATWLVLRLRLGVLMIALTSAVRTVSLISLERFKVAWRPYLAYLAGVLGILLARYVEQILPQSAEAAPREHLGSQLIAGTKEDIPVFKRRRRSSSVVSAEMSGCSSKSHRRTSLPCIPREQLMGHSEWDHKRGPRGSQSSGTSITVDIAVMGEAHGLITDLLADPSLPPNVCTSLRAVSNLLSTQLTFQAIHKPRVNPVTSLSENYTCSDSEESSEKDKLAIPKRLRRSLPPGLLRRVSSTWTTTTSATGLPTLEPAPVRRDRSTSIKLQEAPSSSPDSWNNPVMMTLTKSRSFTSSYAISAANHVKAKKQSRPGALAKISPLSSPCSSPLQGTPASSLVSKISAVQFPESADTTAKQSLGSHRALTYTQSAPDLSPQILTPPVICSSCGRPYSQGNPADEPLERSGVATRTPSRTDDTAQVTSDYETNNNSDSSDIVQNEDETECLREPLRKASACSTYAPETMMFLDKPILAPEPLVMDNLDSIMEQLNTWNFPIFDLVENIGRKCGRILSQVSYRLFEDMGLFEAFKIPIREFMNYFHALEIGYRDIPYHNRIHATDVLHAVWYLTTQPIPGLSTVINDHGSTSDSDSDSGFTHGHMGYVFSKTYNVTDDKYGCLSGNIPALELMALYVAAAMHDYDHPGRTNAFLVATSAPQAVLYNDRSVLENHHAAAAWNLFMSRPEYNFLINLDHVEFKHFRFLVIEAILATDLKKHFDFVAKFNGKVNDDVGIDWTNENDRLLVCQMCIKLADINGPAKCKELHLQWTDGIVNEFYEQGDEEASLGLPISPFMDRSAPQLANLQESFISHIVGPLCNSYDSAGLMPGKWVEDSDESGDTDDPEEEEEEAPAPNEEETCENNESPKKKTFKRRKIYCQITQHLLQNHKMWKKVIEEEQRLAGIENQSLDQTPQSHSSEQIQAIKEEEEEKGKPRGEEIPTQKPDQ
Vasopressin V2 receptor, sequence (P30518 whole entry): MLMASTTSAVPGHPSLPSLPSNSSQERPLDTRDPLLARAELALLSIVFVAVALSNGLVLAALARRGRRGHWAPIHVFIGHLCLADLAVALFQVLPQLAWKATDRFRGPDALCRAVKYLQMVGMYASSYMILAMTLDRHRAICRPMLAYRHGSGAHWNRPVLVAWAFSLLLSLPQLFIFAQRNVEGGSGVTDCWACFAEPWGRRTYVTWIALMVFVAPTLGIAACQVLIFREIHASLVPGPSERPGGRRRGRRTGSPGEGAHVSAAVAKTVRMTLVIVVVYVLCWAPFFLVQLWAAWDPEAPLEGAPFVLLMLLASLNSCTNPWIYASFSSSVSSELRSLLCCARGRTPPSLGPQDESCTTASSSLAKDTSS
Adenosine receptor A2a, sequence (P29274 whole entry): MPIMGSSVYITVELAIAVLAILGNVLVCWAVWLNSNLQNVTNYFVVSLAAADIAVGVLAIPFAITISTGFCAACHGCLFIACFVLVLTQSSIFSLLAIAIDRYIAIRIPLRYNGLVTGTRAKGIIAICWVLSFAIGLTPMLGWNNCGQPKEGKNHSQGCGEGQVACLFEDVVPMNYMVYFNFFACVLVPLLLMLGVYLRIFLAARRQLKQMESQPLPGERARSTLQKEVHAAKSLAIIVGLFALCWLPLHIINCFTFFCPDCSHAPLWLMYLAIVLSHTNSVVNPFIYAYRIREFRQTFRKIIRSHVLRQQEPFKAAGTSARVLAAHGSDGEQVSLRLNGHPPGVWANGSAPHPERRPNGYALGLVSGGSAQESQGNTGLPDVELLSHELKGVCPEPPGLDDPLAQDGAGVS
Sodium-dependent noradrenaline transporter, sequence (P23975 whole entry): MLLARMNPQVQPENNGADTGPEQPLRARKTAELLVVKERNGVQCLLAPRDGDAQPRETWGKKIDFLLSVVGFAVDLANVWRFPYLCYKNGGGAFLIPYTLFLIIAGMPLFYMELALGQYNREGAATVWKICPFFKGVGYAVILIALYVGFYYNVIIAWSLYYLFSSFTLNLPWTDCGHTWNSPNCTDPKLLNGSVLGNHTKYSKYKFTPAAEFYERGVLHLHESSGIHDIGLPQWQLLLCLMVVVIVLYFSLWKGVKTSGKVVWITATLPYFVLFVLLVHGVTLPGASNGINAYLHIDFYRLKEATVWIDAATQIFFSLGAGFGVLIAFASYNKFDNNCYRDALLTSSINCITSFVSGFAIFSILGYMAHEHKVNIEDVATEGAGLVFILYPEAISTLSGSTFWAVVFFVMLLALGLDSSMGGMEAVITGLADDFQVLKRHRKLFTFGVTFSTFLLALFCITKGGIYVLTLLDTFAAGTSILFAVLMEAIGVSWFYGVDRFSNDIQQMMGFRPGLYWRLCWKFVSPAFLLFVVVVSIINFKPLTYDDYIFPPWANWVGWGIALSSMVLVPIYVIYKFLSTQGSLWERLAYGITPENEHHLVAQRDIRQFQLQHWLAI
D(3) dopamine receptor, sequence (P35462 whole entry): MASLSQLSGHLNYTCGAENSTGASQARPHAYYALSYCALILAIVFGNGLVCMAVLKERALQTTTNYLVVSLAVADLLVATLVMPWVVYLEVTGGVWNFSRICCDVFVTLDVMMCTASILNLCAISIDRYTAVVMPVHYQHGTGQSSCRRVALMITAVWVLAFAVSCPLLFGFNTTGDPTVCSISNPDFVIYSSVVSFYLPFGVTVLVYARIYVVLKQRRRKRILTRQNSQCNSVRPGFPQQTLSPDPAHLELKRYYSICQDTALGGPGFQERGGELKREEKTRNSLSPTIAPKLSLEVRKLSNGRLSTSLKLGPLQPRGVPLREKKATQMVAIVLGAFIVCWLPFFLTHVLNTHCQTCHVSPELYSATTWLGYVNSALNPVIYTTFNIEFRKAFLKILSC

C[N+]12CCC(CC1)C(OC(=O)C(O)(c1ccccc1)c1ccccc1)C2 (stereo unspecified)
AC50 [1]: > 30 µM
AC50 [2]: > 30 µM
AC50 [3]: > 30 µM
AC50 [4]: > 30 µM
AC50 [5]: > 30 µM
AC50 [6]: > 30 µM
AC50 [7]: > 30 µM
AC50 [8]: > 30 µM
AC50 [9]: > 30 µM
AC50 [10]: > 30 µM
AC50 [11]: > 30 µM
AC50 [12]: > 30 µM
AC50 [13]: > 30 µM
AC50 [14]: > 30 µM

CO/N=C(\C(=O)N[C@@H]1C(=O)N2C(C(=O)O)=CCS[C@H]12)c1csc(N)n1 [CEFTIZOXIME]
AC50 [1]: > 30 µM
AC50 [2]: > 30 µM
AC50 [3]: > 30 µM
AC50 [4]: > 30 µM
AC50 [5]: > 30 µM
AC50 [6]: > 30 µM
AC50 [7]: > 30 µM
AC50 [15]: > 30 µM
AC50 [8]: > 30 µM
AC50 [9]: > 30 µM
AC50 [10]: > 30 µM
AC50 [11]: > 30 µM
AC50 [12]: > 30 µM
AC50 [13]: > 30 µM

CO/N=C(\C(=O)N[C@@H]1C(=O)N2C(C(=O)O)=C(CSc3nc(=O)c(=O)[nH]n3C)CS[C@H]12)c1csc(N)n1 [CEFTRIAXONE]
AC50 [1]: > 30 µM
AC50 [2]: > 30 µM
AC50 [3]: > 30 µM
AC50 [4]: > 30 µM
AC50 [5]: > 30 µM
AC50 [6]: > 30 µM
AC50 [7]: > 30 µM
AC50 [15]: > 30 µM
AC50 [8]: > 30 µM
AC50 [9]: > 30 µM
AC50 [10]: > 30 µM
AC50 [11]: > 30 µM
AC50 [12]: > 30 µM
AC50 [13]: > 30 µM
AC50 [14]: > 30 µM

CC(C)NC[C@H](O)COc1ccc(CC(N)=O)cc1 [ESATENOLOL]
AC50 [1]: > 30 µM
AC50 [2]: > 10 µM
AC50 [3]: > 10 µM
AC50 [5]: > 30 µM
AC50 [6]: > 30 µM
AC50 [8]: > 10 µM
AC50 [11]: > 30 µM
AC50 [12]: > 10 µM
AC50 [13]: > 10 µM
AC50 [14]: > 10 µM

O=C(NCCO[N+](=O)[O-])c1cccnc1 [NICORANDIL]
AC50 [1]: > 30 µM
AC50 [2]: > 30 µM
AC50 [3]: > 30 µM
AC50 [4]: > 30 µM
AC50 [5]: > 30 µM
AC50 [6]: > 30 µM
AC50 [7]: > 30 µM
AC50 [15]: > 30 µM
AC50 [8]: > 30 µM
AC50 [9]: > 30 µM
AC50 [10]: > 30 µM
AC50 [11]: > 30 µM
AC50 [12]: > 30 µM
AC50 [13]: > 30 µM
AC50 [14]: > 30 µM

CO[C@H]1C[C@H](O[C@H]2CC[C@@]3(C)[C@H](CC[C@@H]4[C@@H]3CC[C@]3(C)[C@@H](C5=CC(=O)OC5)[C@@H](OC(C)=O)C[C@]43O)C2)O[C@@H](C)[C@@H]1O [OLEANDRIN]
AC50 [2]: > 30 µM
AC50 [3]: > 30 µM
AC50 [7]: > 30 µM
AC50 [15]: > 30 µM
AC50 [8]: > 30 µM
AC50 [10]: > 30 µM
AC50 [13]: > 30 µM
AC50 [14]: > 30 µM

O=c1[nH]c2ccccc2n1CCCN1CCN(C(c2ccccc2)c2ccccc2)CC1 [OXATOMIDE]
AC50 [1]: > 30 µM
AC50 [2]: > 30 µM
AC50 [3]: 0.89 µM
AC50 [4]: > 30 µM
AC50 [5]: 17 µM
AC50 [6]: > 30 µM
AC50 [7]: > 30 µM
AC50 [15]: 6.6 µM
AC50 [8]: > 30 µM
AC50 [9]: > 30 µM
AC50 [11]: > 30 µM
AC50 [12]: 3.2 µM
AC50 [13]: > 30 µM
AC50 [14]: 0.13 µM

C[C@]12C/C(=C/O)C(=O)C[C@@H]1CC[C@@H]1[C@@H]2CC[C@@]2(C)[C@H]1CC[C@]2(C)O [OXYMETHOLONE]
AC50 [1]: > 30 µM
AC50 [2]: > 30 µM
AC50 [3]: > 30 µM
AC50 [4]: > 30 µM
AC50 [5]: 15 µM
AC50 [6]: > 30 µM
AC50 [7]: > 30 µM
AC50 [15]: > 30 µM
AC50 [8]: > 30 µM
AC50 [9]: > 30 µM
AC50 [10]: > 30 µM
AC50 [11]: > 30 µM
AC50 [12]: > 30 µM
AC50 [13]: > 30 µM
AC50 [14]: > 30 µM

COc1cc2[nH]c(C)c(CCN3CCN(c4ccccc4)CC3)c2cc1OC [OXYPERTINE]
AC50 [1]: > 30 µM
AC50 [2]: > 30 µM
AC50 [3]: 1.4 µM
AC50 [4]: 26 µM
AC50 [5]: > 30 µM
AC50 [6]: > 30 µM
AC50 [7]: > 30 µM
AC50 [15]: > 30 µM
AC50 [8]: > 30 µM
AC50 [9]: > 30 µM
AC50 [10]: 0.12 µM
AC50 [11]: > 30 µM
AC50 [12]: 14 µM
AC50 [13]: > 30 µM
AC50 [14]: > 10 µM

c1ccc(C2(N3CCCCC3)CCCCC2)cc1 [PHENCYCLIDINE]
AC50 [1]: > 30 µM
AC50 [2]: > 30 µM
AC50 [3]: > 30 µM
AC50 [4]: > 30 µM
AC50 [5]: > 30 µM
AC50 [6]: > 30 µM
AC50 [7]: > 30 µM
AC50 [15]: > 30 µM
AC50 [8]: > 30 µM
AC50 [9]: > 30 µM
AC50 [10]: > 30 µM
AC50 [11]: > 30 µM
AC50 [12]: 12 µM
AC50 [13]: > 30 µM
AC50 [14]: > 30 µM

COc1cc(C(=O)OCc2cccc(COC(=O)c3cc(OC)c(OC)c(OC)c3)n2)cc(OC)c1OC [PIROZADIL]
AC50 [1]: > 30 µM
AC50 [2]: > 30 µM
AC50 [3]: > 30 µM
AC50 [4]: > 30 µM
AC50 [5]: > 30 µM
AC50 [6]: > 30 µM
AC50 [7]: > 30 µM
AC50 [15]: > 30 µM
AC50 [8]: > 30 µM
AC50 [9]: > 30 µM
AC50 [10]: > 30 µM
AC50 [11]: > 30 µM
AC50 [12]: > 30 µM
AC50 [13]: > 30 µM
AC50 [14]: > 30 µM

CCN1CCCC1CNC(=O)c1cc(S(=O)(=O)CC)ccc1OC (stereo unspecified) [SULTOPRIDE]
AC50 [1]: > 30 µM
AC50 [2]: > 30 µM
AC50 [3]: 4.5 µM
AC50 [4]: > 30 µM
AC50 [5]: > 30 µM
AC50 [6]: > 30 µM
AC50 [7]: > 30 µM
AC50 [15]: > 30 µM
AC50 [8]: > 30 µM
AC50 [9]: > 30 µM
AC50 [10]: 1.3 µM
AC50 [11]: > 30 µM
AC50 [12]: > 30 µM
AC50 [13]: > 30 µM
AC50 [14]: > 30 µM

CCCCCCCC(=O)CC[C@@H]1[C@@H](C/C=C\CCCC(=O)OC(C)C)[C@@H](O)C[C@H]1O [UNOPROSTONE ISOPROPYL]
AC50 [3]: 13 µM
AC50 [9]: > 30 µM
AC50 [10]: 0.89 µM
AC50 [12]: 7.2 µM
AC50 [13]: > 30 µM
AC50 [14]: > 30 µM
